Data taken from patent publication US8455658B2, “Thiazole and thiadiazole compounds for inflammation and immune-related uses” (Synta Pharmaceuticals Corp., priority 2006, dated 2013).

Test system: IL-2 production
Assay: Inhibition of IL-2 production in PHA-activated Jurkat cells (ELISA)
Type: cell-based
Conditions: Homo sapiens, Jurkat, 20 h, PHA 2.5 μg/mL, IL-2 ELISA
Experimental: Jurkat cells were placed in a 96 well plate (0.5 million cells per well in 1% FBS medium) then a test compound of this invention was added at different concentrations. After 10 minutes, the cells were activated with PHA (final concentration 2.5 μg/mL) and incubated for 20 hours at 37° C. under CO2. The final volume was 200 μL. Following incubation, the cells were centrifuged and the supernatants collected and stored at −70° C. prior to assaying for IL-2 production. A commercial ELISA kit (IL-2 Eli-pair, Diaclone Research, Besancon, France) was used to detect production of IL-2, from which dose response curves were obtained.

Row | SMILES | IC50 [nM]
1 | Cc1nc(C(=O)Nc2c(F)cccc2F)sc1-c1cccc(-c2nnco2)c1 [Compound 118, 5-(3-(1,3,4-oxadiazol-2-yl)phenyl)-N-(2,6-difluorophenyl)-4-methylthiazole-2-carboxamide] | 200 to 500
2 | Cc1nc(C(=O)Nc2c(F)cccc2F)sc1-c1cc(C(F)(F)F)ccc1Cl [Compound 119, 5-(2-chloro-5-(trifluoromethyl)phenyl)-N-(2,6-difluorophenyl)-4-methylthiazole-2-carboxamide] | 200 to 500
3 | Cc1cnccc1NC(=O)c1nc(C)c(-c2cccc(C(F)(F)F)c2)s1 [Compound 120, 4-methyl-N-(3-methylpyridin-4-yl)-5-(3-(trifluoromethyl)phenyl)thiazole-2-carboxamide] | > 1000
4 | Cc1ccc(-c2ncco2)cc1-c1ncc(C(=O)Nc2c(F)cccc2F)s1 [Compound 121, N-(2,6-difluorophenyl)-2-(2-methyl-5-(oxazol-2-yl)phenyl)thiazole-5-carboxamide] | 100 to 200
5 | Cc1ccc(-c2nccs2)cc1-c1ncc(C(=O)Nc2c(F)cccc2F)s1 [Compound 122, N-(2,6-difluorophenyl)-2-(2-methyl-5-(thiazol-2-yl)phenyl)thiazole-5-carboxamide] | 30 to 50
6 | O=C(Nc1c(F)cccc1F)c1cnc(-c2cccc(C(F)(F)F)c2)s1 [Compound 123, N-(2,6-difluorophenyl)-2-(3-(trifluoromethyl)phenyl)thiazole-5-carboxamide] | > 1000
7 | O=C(Nc1c(F)cccc1F)c1cnc(-c2cccc(-c3ncco3)c2)s1 [Compound 124, N-(2,6-difluorophenyl)-2-(3-(oxazol-2-yl)phenyl)thiazole-5-carboxamide] | > 1000
8 | O=C(Nc1c(F)cccc1F)c1cnc(-c2cc(-c3nccs3)ccc2Cl)s1 [Compound 125, 2-(2-chloro-5-(thiazol-2-yl)phenyl)-N-(2,6-difluorophenyl)thiazole-5-carboxamide] | 200 to 500
9 | COc1ncc(Cl)cc1-c1ncc(C(=O)Nc2c(F)cccc2F)s1 [Compound 126, 2-(5-chloro-2-methoxypyridin-3-yl)-N-(2,6-difluorophenyl)thiazole-5-carboxamide] | > 1000
10 | Cc1ccc(-c2nnco2)cc1-c1ncc(C(=O)Nc2c(F)cccc2F)s1 [Compound 128, N-(2,6-difluorophenyl)-2-(2-methyl-5-(1,3,4-oxadiazol-2-yl)phenyl)thiazole-5-carboxamide] | 200 to 500
11 | O=C(Nc1c(F)cccc1F)c1ncc(-c2cc(C(F)(F)F)ccc2Cl)s1 [Compound 129, 5-(2-chloro-5-(trifluoromethyl)phenyl)-N-(2,6-difluorophenyl)thiazole-2-carboxamide] | < 30
12 | O=C(Nc1c(F)cccc1F)c1ncc(-c2cccc(C(F)(F)F)c2)s1 [Compound 130, N-(2,6-difluorophenyl)-5-(3-(trifluoromethyl)phenyl)thiazole-2-carboxamide] | 100 to 200
13 | O=C(Nc1c(F)cccc1F)c1ncc(-c2cccc(-c3ncco3)c2)s1 [Compound 131, N-(2,6-difluorophenyl)-5-(3-(oxazol-2-yl)phenyl)thiazole-2-carboxamide] | 50 to 100
14 | Cc1cnccc1NC(=O)c1ncc(-c2cc(-c3ncco3)ccc2C)s1 [Compound 132, 5-(2-methyl-5-(oxazol-2-yl)phenyl)-N-(3-methylpyridin-4-yl)thiazole-2-carboxamide] | > 1000
15 | Cc1cnccc1NC(=O)c1ncc(-c2cc(-c3nccs3)ccc2C)s1 [Compound 133, 5-(2-methyl-5-(thiazol-2-yl)phenyl)-N-(3-methylpyridin-4-yl)thiazole-2-carboxamide] | > 1000
